# Source: patent publication US8178506B2, “Oligomeric compounds and compositions for use in modulation of small non-coding RNAs” (Regulus Therapeutics Inc., priority 2003, dated 2012)
# In the oligonucleotide strings, read from the 5' end, every base follows the letter of its sugar. An asterisk marks phosphorothioate; unmarked linkages are phosphodiester. Other units and linkages are bracketed, terminal groups are in braces. A string of capitals states the bases alone. e = 2'-O-(2-methoxyethyl) (MOE); [5mC] = 5-methylcytosine; d = 2'-deoxy (DNA)
# How the values were obtained:
# mir-15a pri-miRNA = mir-15a pri-miRNA expression in HepG2 cells (real-time RT-PCR); assay type: cell-based, human; details: for expression of the mir-15a pri-miRNA molecule: HepG2, 100 nM; for Expression of mir-15a pri-miRNA (% UTC): HepG2 cells, 100 nM, real-time RT-PCR
# Procedure: Using the real-time RT-PCR methods described in Example 19, the expression levels of the mir-15a pri-miRNA were compared in HepG2 cells treated with a nested series of chimeric gapmer oligomeric compounds, targeting and spanning the entire length of the mir-15a pri-miRNA; these compounds are shown in Table 45, below. […] All cytidine residues are 5-methylcytidines. Using the transfection methods described herein, HepG2 cells were treated with 100 nM of each of these gapmer oligomeric compounds. Total RNA was isolated from HepG2 cells by lysing cells in 1 mL TRIZOL™ (Invitrogen) using the manufacturer's recommended protocols. Real-time RT-PCR analysis was performed using a primer/probe set specific for the mir-15a pri-miRNA molecule to assess the effects of these compounds on expression of the mir-15a pri-miRNA molecule. ISIS 339317 ([…]; SEQ ID NO.: 885) was used as the forward primer, ISIS 339318 (TGGCCTGCACCTTTTCAAA; SEQ ID NO.: 886) was used as the reverse primer, and ISIS 339319 ([…]; SEQ ID NO.: 887) was used as the probe. Total RNA was quantified using RiboGreen™ RNA quantification reagent (Molecular Probes, Inc. Eugene, Oreg.), expression levels observed for each target are normalized to 5.8S rRNA, and values are expressed relative to the untreated control. Inhibition of expression of the mir15a pri-miRNA by these gapmer oligomeric compounds is expressed as a percentage of RNA levels in untreated control cells.
# HeLa cells = test: Cell cycle assay in HeLa cells; assay type: cell-based, human; details: HeLa cells
# T47D cells = test: Cell cycle assay in T47D cells; assay type: cell-based, human; details: 150 nM, 48 hours, relative to untreated control
# Procedure: (§1) BJ cells were routinely cultured in MEM high glucose with 2 mM L-glutamine and Earle's BSS adjusted to contain 1.5 g/L sodium bicarbonate and supplemented with 10% fetal bovine serum, 0.1 mM non-essential amino acids and 1.0 mM sodium pyruvate (all media and supplements from Invitrogen Life Technologies, Carlsbad, Calif.). B16-F10 cells were routinely cultured in DMEM high glucose (Invitrogen Life Technologies, Carlsbad, Calif.) supplemented with 10% fetal bovine serum (Invitrogen Life Technologies, Carlsbad, Calif.). T47D cells were cultured in DMEM High glucose media (Invitrogen Life Technologies, Carlsbad, Calif.) supplemented with 10% fetal bovine serum. […] Cells were plated on collagen-coated 24-well plates (Falcon-Primaria #3047, BD Biosciences, Bedford, Mass.) at approximately 50,000 cells per well and allowed to attach to wells overnight.
# (§2) In further studies, additional cell lines were treated with oligomeric compounds targeted against miRNAs to assess the effects of each oligomeric compound on cell cycling. BJ, B16, T47D, and HeLa cells were cultured and transfected as described above. […] T47Dp53 cells are T47D cells that have been transfected with and selected for maintenance of a plasmid that expresses a wildtype copy of the p53 gene (for example, pCMV-p53; Clontech, Palo Alto, Calif.), using standard laboratory procedures. BJ cells were treated with 200 nM of each oligomeric compound, and T47D, T47Dp53, HeLa, and B16 cells were treated with 150 nM of each oligomeric compound. The human foreskin fibroblast BJ cell line represents a non-cancer cell line, while HeLa, T47D, T47Dp53 cells and the mouse melanoma cell line B16-F10 represent cancerous cell lines. For comparison, oligomeric compounds ISIS 183891 (SEQ ID NO: 847) and ISIS 285717 ([…]; herein incorporated as SEQ ID NO: 857), both targeting the kinesin-like 1/Eg5 mRNA, involved in cell cycling, were used as positive controls. The random-mer ISIS 29848 was used as a negative control. Additionally, the oligomeric compounds ISIS Number 25690 ([…]; herein incorporated as SEQ ID NO: 858) and ISIS Number 25691 ([…]; herein incorporated as SEQ ID NO: 859), targeted to nucleotides 3051-3070 and 3085-3104, respectively, of the mRNA encoding the Drosha RNase III (GenBank Accession NM_013235.2, incorporated herein as SEQ ID NO: 860) were also tested. ISIS Number 25690 and ISIS Number 25691 are 5-10-52′-MOE gapmer compounds, 20 nucleotides in length, with phosphorothioate internucleoside linkages throughout the oligomeric compound. All cytidine residues are 5-methylcytidines. Transfections were performed using the methods described herein. Cells were prepared for flow cytometry 48-hours after oligonucleotide treatment. Results of these studies are shown in Table 35, where data are expressed as percentage of cells in each phase relative to the untreated control cells in that phase.
# BJ cells = test: Cell cycle assay in BJ cells; assay type: cell-based, human; details: 200 nM, 48 hours, relative to untreated control
# Procedure: as §1, §2
# B16-F10 cells = test: Cell cycle assay in B16-F10 cells; assay type: cell-based, mouse; details: 150 nM, 48 hours, relative to untreated control
# Procedure: as §1, §2
# T47Dp53 cells = test: Cell cycle assay in T47Dp53 cells; assay type: cell-based, human; details: 150 nM, 48 hours, relative to untreated control
# Procedure: as §2
# [1] = 150 nM oligomeric compound, 24 hours, relative to untreated control (UTC = 100)
# [2] = 150 nM oligomeric compound, 48 hours after treatment, relative to untreated control (UTC=100)
# [3] = 150 nM, 48 hours, relative to untreated control
substance,measurement,setting,value
ISIS 347966: 5-10-5 2′-MOE gapmer PS; targets mir-15a pri-miRNA (antisense eT*eG*e[5mC]*eT*eA*d[5mC]*dT*dT*dT*dA*d[5mC]*dT*d[5mC]*d[5mC]*dA*eA*eG*eG*eT*eT),expression of the mir-15a pri-miRNA molecule,mir-15a pri-miRNA,significant inhibition of expression of the mir-15a pri-miRNA molecule
ISIS 347964: 5-10-5 2′-MOE gapmer PS; targets mir-15a pri-miRNA (antisense eT*eA*eT*eA*eA*d[5mC]*dA*dT*dT*dG*dA*dT*dG*dT*dA*eA*eT*eA*eT*eG),expression of the mir-15a pri-miRNA molecule,mir-15a pri-miRNA,significant inhibition of expression of the mir-15a pri-miRNA molecule
ISIS 347973: 5-10-5 2′-MOE gapmer PS; targets mir-15a pri-miRNA (antisense eG*eG*e[5mC]*eA*eG*d[5mC]*dA*d[5mC]*dA*dA*dT*dA*dT*dG*dG*e[5mC]*e[5mC]*eT*eG*e[5mC]),expression of the mir-15a pri-miRNA molecule,mir-15a pri-miRNA,stimulate an increase in expression levels of the mir-15a pri-miRNA
347974 (eT*eG*eA*eG*eG*d[5mC]*dA*dG*d[5mC]*dA*d[5mC]*dA*dA*dT*dA*eT*eG*eG*e[5mC]*e[5mC]; antisense) [compound 347974],Expression of mir-15a pri-miRNA (% UTC),mir-15a pri-miRNA,98.1 % UTC
347969 (eT*eG*eG*e[5mC]*e[5mC]*dT*dG*d[5mC]*dA*d[5mC]*d[5mC]*dT*dT*dT*dT*e[5mC]*eA*eA*eA*eA; antisense) [compound 347969],Expression of mir-15a pri-miRNA (% UTC),mir-15a pri-miRNA,39.5 % UTC
347965 (eG*e[5mC]*eT*eA*e[5mC]*dT*dT*dT*dA*d[5mC]*dT*d[5mC]*d[5mC]*dA*dA*eG*eG*eT*eT*eT; antisense) [compound 347965],Expression of mir-15a pri-miRNA (% UTC),mir-15a pri-miRNA,86.0 % UTC
347964 (eT*eA*eT*eA*eA*d[5mC]*dA*dT*dT*dG*dA*dT*dG*dT*dA*eA*eT*eA*eT*eG; antisense) [compound 347964],Expression of mir-15a pri-miRNA (% UTC),mir-15a pri-miRNA,13.7 % UTC
328744 (antisense e[5mC]*eG*eG*eA*eT*d[5mC]*d[5mC]*dT*dG*dT*dT*dA*d[5mC]*d[5mC]*dT*e[5mC]*eA*e[5mC]*e[5mC]*eA) [compound 328744],% cells aneuploid,HeLa cells; [1],111%
same,% cells in cell cycle phase G1,HeLa cells; [1],31%
same,% cells in cell cycle phase G2/M,HeLa cells; [1],167%
same,% cells in cell cycle phase S,HeLa cells; [1],108%
same,% cells in cell cycle phase subG1,HeLa cells; [1],229%
same,% cells in cell cycle phase: G1,HeLa cells; [2],31%
same,% cells in cell cycle phase: G2/M,HeLa cells; [2],334%
same,% cells in cell cycle phase: S,HeLa cells; [2],78%
same,% cells in cell cycle phase: aneuploid,HeLa cells; [2],171%
same,% cells in cell cycle phase: subG1,HeLa cells; [2],1774%
same,% cells in cell cycle phase G1,HeLa cells; [3],53%
same,% cells in cell cycle phase G2/M,HeLa cells; [3],213%
same,% cells in cell cycle phase S,HeLa cells; [3],110%
same,% cells in cell cycle phase aneuploid,HeLa cells; [3],178%
same,% cells in cell cycle phase subG1,HeLa cells; [3],1057%
same,% cells in cell cycle phase G1,T47D cells,90%
same,% cells in cell cycle phase G2/M,T47D cells,118%
same,% cells in cell cycle phase S,T47D cells,87%
same,% cells in cell cycle phase aneuploid,T47D cells,191%
same,% cells in cell cycle phase subG1,T47D cells,85%
same,% cells in cell cycle phase G1,BJ cells,94%
same,% cells in cell cycle phase G2/M,BJ cells,127%
same,% cells in cell cycle phase S,BJ cells,111%
same,% cells in cell cycle phase aneuploid,BJ cells,158%
same,% cells in cell cycle phase subG1,BJ cells,125%
same,% cells in cell cycle phase G1,B16-F10 cells,108%
same,% cells in cell cycle phase G2/M,B16-F10 cells,110%
same,% cells in cell cycle phase S,B16-F10 cells,87%
same,% cells in cell cycle phase aneuploid,B16-F10 cells,115%
same,% cells in cell cycle phase subG1,B16-F10 cells,153%
same,% cells in cell cycle phase G1,T47Dp53 cells,130%
same,% cells in cell cycle phase G2/M,T47Dp53 cells,101%
same,% cells in cell cycle phase S,T47Dp53 cells,59%
same,% cells in cell cycle phase aneuploid,T47Dp53 cells,100%
same,% cells in cell cycle phase subG1,T47Dp53 cells,90%
347966 (eT*eG*e[5mC]*eT*eA*d[5mC]*dT*dT*dT*dA*d[5mC]*dT*d[5mC]*d[5mC]*dA*eA*eG*eG*eT*eT; antisense) [compound 347966],Expression of mir-15a pri-miRNA (% UTC),mir-15a pri-miRNA,39.2 % UTC
347975 (eT*eT*eT*eT*eG*dA*dG*dG*d[5mC]*dA*dG*d[5mC]*dA*d[5mC]*dA*eA*eT*eA*eT*eG; antisense) [compound 347975],Expression of mir-15a pri-miRNA (% UTC),mir-15a pri-miRNA,9.2 % UTC
347980 (eA*eG*eA*eT*e[5mC]*dA*dG*dA*dT*d[5mC]*d[5mC]*dT*dT*dG*dT*eA*eT*eT*eT*eT; antisense) [compound 347980],Expression of mir-15a pri-miRNA (% UTC),mir-15a pri-miRNA,3.6 % UTC
ISIS 347970: 5-10-5 2′-MOE gapmer PS; targets mir-15a pri-miRNA (antisense eA*eT*eA*eT*eG*dG*d[5mC]*d[5mC]*dT*dG*d[5mC]*dA*d[5mC]*d[5mC]*dT*eT*eT*eT*e[5mC]*eA),expression of the mir-15a pri-miRNA molecule,mir-15a pri-miRNA,significant inhibition of expression of the mir-15a pri-miRNA molecule
347970 (eA*eT*eA*eT*eG*dG*d[5mC]*d[5mC]*dT*dG*d[5mC]*dA*d[5mC]*d[5mC]*dT*eT*eT*eT*e[5mC]*eA; antisense) [compound 347970],Expression of mir-15a pri-miRNA (% UTC),mir-15a pri-miRNA,2.2 % UTC
25691 (antisense eG*e[5mC]*e[5mC]*eA*eA*dG*dG*d[5mC]*dG*dT*dG*dA*d[5mC]*dA*dT*eG*eA*eT*eA*eT) [compound 25691],% cells in cell cycle phase G1,HeLa cells; [3],53%
same,% cells in cell cycle phase G2/M,HeLa cells; [3],113%
same,% cells in cell cycle phase S,HeLa cells; [3],141%
same,% cells in cell cycle phase aneuploid,HeLa cells; [3],203%
same,% cells in cell cycle phase subG1,HeLa cells; [3],881%
same,% cells in cell cycle phase G1,T47D cells,94%
same,% cells in cell cycle phase G2/M,T47D cells,104%
same,% cells in cell cycle phase S,T47D cells,104%
same,% cells in cell cycle phase aneuploid,T47D cells,203%
same,% cells in cell cycle phase subG1,T47D cells,125%
same,% cells in cell cycle phase G1,BJ cells,94%
same,% cells in cell cycle phase G2/M,BJ cells,125%
same,% cells in cell cycle phase S,BJ cells,116%
same,% cells in cell cycle phase aneuploid,BJ cells,209%
same,% cells in cell cycle phase subG1,BJ cells,183%
same,% cells in cell cycle phase G1,B16-F10 cells,116%
same,% cells in cell cycle phase G2/M,B16-F10 cells,99%
same,% cells in cell cycle phase S,B16-F10 cells,83%
same,% cells in cell cycle phase aneuploid,B16-F10 cells,105%
same,% cells in cell cycle phase subG1,B16-F10 cells,316%
same,% cells in cell cycle phase G1,T47Dp53 cells,130%
same,% cells in cell cycle phase G2/M,T47Dp53 cells,93%
same,% cells in cell cycle phase S,T47Dp53 cells,66%
same,% cells in cell cycle phase aneuploid,T47Dp53 cells,95%
same,% cells in cell cycle phase subG1,T47Dp53 cells,212%
